Measured values reported in PubChem BioAssay (NCI).
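Test compounds were applied to cells in 96-well plates for 48 hours at 5 doses. At the GI50, growth is halved. TGI denotes the concentration required for complete inhibition of growth.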

Tests used:
Assay in all cases: growth of human tumour cells (NCI), 48 h
[1] = test system: SNB-19 CNS
[2] = test system: HCT-116 colon
[3] = test system: SK-OV-3 ovarian
[4] = test system: 786-0 renal
[5] = test system: NCI-H226 lung
[6] = test system: HCC-2998 colon
[7] = test system: CCRF-CEM leukemia
[8] = test system: A549 NSCLC
[9] = test system: U251 CNS
[10] = test system: TK-10 renal
[11] = test system: HT29 colon
[12] = test system: LOX IMVI melanoma
[13] = test system: NCI-H23 lung
[14] = test system: EKVX NSCLC
[15] = test system: COLO 205 colon
[16] = test system: SF-539 CNS
[17] = test system: SN12C renal
[18] = test system: A498 renal
[19] = test system: SF-268 CNS
[20] = test system: ACHN renal
[21] = test system: NCI-H522 lung
[22] = test system: SF-295 CNS
[23] = test system: OVCAR-8 ovarian
[24] = test system: HL-60(TB) leukemia
[25] = test system: MALME-3M melanoma
[26] = test system: K-562 leukemia
[27] = test system: RXF 393 renal
[28] = test system: MCF7 breast
[29] = test system: HCT-15 colon
[30] = test system: UACC-257 melanoma
[31] = test system: RPMI-8226 leukemia
[32] = test system: HS 578T breast
[33] = test system: SK-MEL-2 melanoma
[34] = test system: MDA-MB-435
[35] = test system: CAKI-1 renal
[36] = test system: UACC-62 melanoma
[37] = test system: UO-31 renal
[38] = test system: IGROV1 ovarian
[39] = test system: KM12 colon
[40] = test system: PC-3 prostate
[41] = test system: SNB-75 CNS
[42] = test system: SK-MEL-5 melanoma
[43] = test system: OVCAR-4 ovarian
[44] = test system: SK-MEL-28 melanoma
[45] = test system: SR leukemia
[46] = test system: MOLT-4 leukemia
[47] = test system: DU-145 prostate
[48] = test system: SW-620 colon
[49] = test system: NCI/ADR-RES ovarian
[50] = test system: M14 melanoma
[51] = test system: OVCAR-3 ovarian
[52] = test system: OVCAR-5 ovarian
[53] = test system: NCI-H460 lung
[54] = test system: BT-549 breast
[55] = test system: HOP-62 NSCLC
[56] = test system: MDA-MB-231 breast
[57] = test system: HOP-92 NSCLC

O=c1cc(-c2ccccc2)[nH]c2c1CCCC2
GI50 [1]: 8.9 µM
TGI [1]: > 100 µM
GI50 [2]: 3.34 µM
TGI [2]: > 100 µM
GI50 [3]: 5.11 µM
TGI [3]: > 100 µM
GI50 [4]: 14.7 µM
TGI [4]: > 100 µM
GI50 [5]: 3.08 µM
TGI [5]: 65.6 µM
GI50 [6]: 2.5 µM
TGI [6]: 31.9 µM
GI50 [7]: 3.4 µM
TGI [7]: > 100 µM
GI50 [8]: 4.55 µM
TGI [8]: > 100 µM
GI50 [9]: 4.54 µM
TGI [9]: > 100 µM
GI50 [10]: 70.6 µM
TGI [10]: > 100 µM
GI50 [11]: 2 µM
TGI [11]: > 100 µM
GI50 [12]: 5.88 µM
TGI [12]: > 100 µM
GI50 [13]: 3.39 µM
TGI [13]: > 100 µM
GI50 [14]: 5.6 µM
TGI [14]: > 100 µM
GI50 [15]: 1.99 µM
TGI [15]: 6.42 µM
GI50 [16]: 2.92 µM
TGI [16]: > 100 µM
GI50 [17]: 13.4 µM
TGI [17]: > 100 µM
GI50 [18]: 1.44 µM
TGI [18]: 7.83 µM
GI50 [19]: 7.72 µM
TGI [19]: > 100 µM
GI50 [20]: 11.6 µM
TGI [20]: > 100 µM
GI50 [21]: 2 µM
TGI [21]: 6.71 µM
GI50 [22]: 1.43 µM
TGI [22]: 7.61 µM
GI50 [23]: 4.58 µM
TGI [23]: > 100 µM
GI50 [24]: 1.62 µM
TGI [24]: > 100 µM
GI50 [25]: 3.48 µM
TGI [25]: > 100 µM
GI50 [26]: 0.85 µM
TGI [26]: > 100 µM
GI50 [27]: 1.8 µM
TGI [27]: 5.53 µM
GI50 [28]: 1.14 µM
TGI [28]: > 100 µM
GI50 [29]: 2.01 µM
TGI [29]: > 100 µM
GI50 [30]: 67 µM
TGI [30]: > 100 µM
GI50 [31]: 4.67 µM
TGI [31]: > 100 µM
GI50 [32]: 2.01 µM
TGI [32]: 8.56 µM
GI50 [33]: 4.19 µM
TGI [33]: > 100 µM
GI50 [34]: 0.29 µM
TGI [34]: 0.992 µM
GI50 [35]: 0.944 µM
TGI [35]: > 100 µM
GI50 [36]: 5.91 µM
TGI [36]: > 100 µM
GI50 [37]: 5.49 µM
TGI [37]: > 100 µM
GI50 [38]: 3.59 µM
TGI [38]: > 100 µM
GI50 [39]: 0.723 µM
TGI [39]: > 100 µM
GI50 [40]: 3.18 µM
TGI [40]: > 100 µM
GI50 [41]: 1.8 µM
TGI [41]: > 100 µM
GI50 [42]: 0.883 µM
TGI [42]: 45.4 µM
GI50 [43]: 9.08 µM
TGI [43]: > 100 µM
GI50 [44]: > 100 µM
TGI [44]: > 100 µM
GI50 [45]: 0.835 µM
TGI [45]: > 100 µM
GI50 [46]: 6.16 µM
TGI [46]: > 100 µM
GI50 [47]: 2.47 µM
TGI [47]: 8.35 µM
GI50 [48]: 1.64 µM
TGI [48]: > 100 µM
GI50 [49]: 1.69 µM
TGI [49]: 5.73 µM
GI50 [50]: 1.5 µM
TGI [50]: 5.68 µM
GI50 [51]: 1.81 µM
TGI [51]: 5.02 µM
GI50 [52]: 14.8 µM
TGI [52]: > 100 µM
GI50 [53]: 3.01 µM
TGI [53]: > 100 µM
GI50 [54]: 21.5 µM
TGI [54]: > 100 µM
GI50 [55]: 4.51 µM
TGI [55]: > 100 µM
GI50 [56]: 6.67 µM
TGI [56]: > 100 µM

COc1ccc(/C=C2\CCCc3ccccc3C2=O)cc1
TGI [2]: 20.5 µM
TGI [3]: > 60.6 µM
TGI [4]: 12.2 µM
TGI [5]: 2.98 µM
TGI [6]: 28.2 µM
TGI [7]: 24.8 µM
TGI [8]: > 54.4 µM
TGI [9]: 35.1 µM
TGI [10]: > 96.6 µM
TGI [11]: 14.6 µM
TGI [12]: 17.4 µM
TGI [13]: 7.76 µM
TGI [14]: > 100 µM
TGI [15]: 0.557 µM
TGI [16]: 5.11 µM
TGI [17]: 16.9 µM
TGI [19]: 5.53 µM
TGI [20]: > 100 µM
TGI [21]: 1.71 µM
TGI [23]: > 44.5 µM
TGI [24]: 9.55 µM
TGI [25]: > 100 µM
TGI [26]: > 100 µM
TGI [28]: 99.2 µM
TGI [29]: > 33.1 µM
TGI [30]: 37.8 µM
TGI [31]: 21.5 µM
TGI [32]: 37.1 µM
TGI [34]: 53.1 µM
TGI [35]: > 66.7 µM
TGI [36]: 26 µM
TGI [37]: > 100 µM
TGI [38]: > 100 µM
TGI [39]: 17.6 µM
TGI [40]: > 100 µM
TGI [41]: > 82.3 µM
TGI [42]: 16 µM
TGI [43]: > 100 µM
TGI [44]: > 100 µM
TGI [45]: > 32 µM
TGI [46]: 35.3 µM
TGI [47]: 1.74 µM
TGI [48]: > 100 µM
TGI [49]: > 100 µM
TGI [57]: 88.1 µM
TGI [50]: 22.2 µM
TGI [51]: 0.422 µM
TGI [52]: > 100 µM
TGI [53]: > 100 µM
TGI [54]: 17.3 µM
TGI [55]: 76.7 µM
TGI [56]: 42.1 µM
